Reference: patent publication EP1296703B1, “NON-ANTIBACTERIAL TETRACYCLINE AS ANTI-FUNGAL AGENTS” (Liu, Yu, priority 2000, dated 2001)

Key:
Rhizopus sp. = test: SABHI agar plate growth inhibition screen; format: cell-based; conditions: for Growth at 25 µg/ml compared to control at 24 hrs incubation / Growth at 25µg/ml compared to control at 48 hours: Rhizopus sp., 30°C, growth grade
Description: (§1) The following fungi were inoculated onto potato dextrose agar (PDA) from stock cultures and incubated aerobically at 30°C: Aspergillus [NT] 1022, Penicillium sp. (laboratory isolate), Candida albicans, ATCC 14053, and Rhizopus sp. […] Candida albicans was suspended in saline and adjusted to 0.5 MacFarland in a similar manner. These suspensions were diluted 1:100 in sterile 0.9% saline. SABHI Agar (Difco) pH 7.0 was prepared in 100ml amounts and sterilized at 121°C for 15 min. […] The plates were then incubated aerobically for 24 hour and for 48 hours at 30°C.

[1] = system: Candida albicans, ATCC 14053; test: SABHI agar plate growth inhibition screen; format: cell-based; conditions: for Growth at 25 µg/ml compared to control at 24 hrs incubation / Growth at 25µg/ml compared to control at 48 hours: Candida Albicans, 30°C, growth grade; for Activity against Candida albicans (Example 1): 25 µg/ml SABHI agar
Description: as §1

[2] = system: Aspergillus fumigatus ATCC 1022; test: SABHI agar plate growth inhibition screen; format: cell-based; conditions: for Activity against Aspergillus fumigatus (Example 1): 25 µg/ml SABHI agar; for Growth at 25 µg/ml compared to control at 24 hrs incubation / Growth at 25µg/ml compared to control at 48 hours: Aspergillus Fumigatus, 30°C, growth grade
Description: as §1

[3] = system: Penicillium sp. (laboratory isolate); test: SABHI agar plate growth inhibition screen; format: cell-based; conditions: for Activity against Penicillium sp. (Example 1): 25 µg/ml SABHI agar; for Growth at 25 µg/ml compared to control at 24 hrs incubation / Growth at 25µg/ml compared to control at 48 hours: Penicillium Sp., 30°C, growth grade
Description: as §1

[4] = Testing in cancer patients (side effects); format: in vivo
Toxicity in vivo = conditions: 2.0 µg/ml concentration
[5] = Blood levels after oral gavage; set-up: species or system adult rats; conditions: rat, in vivo
Excerpt: In the treatment of certain localized conditions, the degree of hydrophilicity of the CMT can be of lesser importance. […].

[6] = Solubility in aqueous systems; format: physicochemical

Row | SMILES | Growth at 25 µg/ml compared to control at 24 hrs incubation (Rhizopus sp.) | Growth at 25µg/ml compared to control at 48 hours (Rhizopus sp.) | Growth at 25 µg/ml compared to control at 24 hrs incubation [1] | Growth at 25µg/ml compared to control at 48 hours [1] | Activity against Aspergillus fumigatus (Example 1) [2] | Growth at 25 µg/ml compared to control at 24 hrs incubation [2] | Growth at 25µg/ml compared to control at 48 hours [2] | Activity against Penicillium sp. (Example 1) [3] | Growth at 25 µg/ml compared to control at 24 hrs incubation [3] | Growth at 25µg/ml compared to control at 48 hours [3] | Side effects [4] | Toxicity in vivo (Toxicity in vivo) | Activity against Rhizopus sp. (Example 1) (Rhizopus sp.; 25 µg/ml SABHI agar) | Activity against Candida albicans (Example 1) [1] | Blood levels [5] | Solubility in aqueous systems [6]
1 | NC(=O)C1=C(O)C[C@@H]2C[C@@H]3Cc4ccc(N)c(O)c4C(=O)C3=C(O)[C@]2(O)C1=O [CMT-308] | 4 (Level of growth in the absence of anti-fungal agent (control).) | 4 (Level of growth in the absence of anti-fungal agent (control).) | 4 (Level of growth in the absence of anti-fungal agent (control).) | 4 (Level of growth in the absence of anti-fungal agent (control).) | demonstrated activity | 0 (complete inhibition of growth.) | 1 (75% reduction in growth in colonies compared to control.) | demonstrated activity | 0 (complete inhibition of growth.) | 0 (complete inhibition of growth.) |  |  |  |  |  | 
2 | NC(=O)C1=C(O)C[C@@H]2C[C@@H]3Cc4cccc(O)c4C(=O)C3=C(O)[C@]2(O)C1=O [CMT-3, 6-demethyl-6-deoxy-4-de(dimethylamino)tetracycline] |  |  |  |  |  |  |  |  |  |  | without evidence of side effects, except at unusually high doses | very little toxicity |  |  |  | 
3 | O=C(NCN1CCNCC1)C1=C(O)C[C@@H]2C[C@@H]3Cc4cccc(O)c4C(=O)C3=C(O)[C@]2(O)C1=O [CMT-315] | 1 (75% reduction in growth in colonies compared to control.) | 1 (75% reduction in growth in colonies compared to control.) | 0 (complete inhibition of growth.) | 0 (complete inhibition of growth.) | activity against all the fungi tested | 0 (complete inhibition of growth.) | 0 (complete inhibition of growth.) | activity against all the fungi tested | 0 (complete inhibition of growth.) | 0 (complete inhibition of growth.) |  |  | activity against all the fungi tested | activity against all the fungi tested |  | 
4 | CC1(O)c2cccc(O)c2C(=O)C2=C(O)C3C(=O)C(C(N)=O)=C(O)CC3CC21 (stereo not drawn) [CMT-7, 4-de(dimethylamino)-12α-deoxytetracycline] | 4 (Level of growth in the absence of anti-fungal agent (control).) | 3 (25% reduction in growth of colonies compared to control.) | 0 (complete inhibition of growth.) | 0 (complete inhibition of growth.) |  | 0 (complete inhibition of growth.) | 4 (Level of growth in the absence of anti-fungal agent (control).) |  | 3 (25% reduction in growth of colonies compared to control.) | 4 (Level of growth in the absence of anti-fungal agent (control).) |  |  |  | strong activity |  | 
5 | CC1(O)c2c(Cl)ccc(O)c2C(=O)C2=C(O)C3(O)C(=O)C(C(N)=O)=C(O)CC3CC21 (stereo not drawn) [CMT-4, 7-chloro-4-de(dimethylamino)tetracycline] | 4 (Level of growth in the absence of anti-fungal agent (control).) | 4 (Level of growth in the absence of anti-fungal agent (control).) | 1 (75% reduction in growth in colonies compared to control.) | 4 (Level of growth in the absence of anti-fungal agent (control).) | demonstrated activity | 0 (complete inhibition of growth.) | 1 (75% reduction in growth in colonies compared to control.) | demonstrated activity | 3 (25% reduction in growth of colonies compared to control.) | 0 (complete inhibition of growth.) |  |  |  |  |  | 
6 | CN(C)C1C(=O)C(C#N)=C(O)C2(O)C(=O)C3=C(O)c4c(O)cccc4C(C)(O)C3CC12 (stereo not drawn) [CMT-2, tetracyclinonitrile] |  |  |  |  |  |  |  |  |  |  |  |  |  |  | no detectable blood levels | low solubility in aqueous systems
